Results published in patent publication US20020051760A1, “Method for screening a substance having promoting activity on hair growth” (SUMITOMO ELECTRIC INDUSTRIES, Ltd., priority 2000, published 2002).
Where no end group is shown, it is not given here.

Experiments:
[1] = tested on: Hacl-1 in the cultures (mouse beard); assay: Induction of Hacl-1 expression in cultured mouse beard; assay type: cell-based, mice; conditions: 50 μg/ml, cultivation for 5 days; the control showed only slight expression
Protocol: (§1) A C57BL mouse (14 weeks old) was shaved on the back with clippers to confirm that the mouse had both skin areas in anagen and telogen as to the hair cycle based on colors of the skin. Each 200 mg of the skin areas in anagen and telogen was collected from the mouse and homogenized on ice for 2 minutes, and then suspended in a buffer (PBS). The supernatant was collected and subjected to SDS-polyacrylamide gel electrophoresis (SDS-PAGE). The respective hair follicles in telogen and anagen were distinguished by observing the tissue section under a microscope, and the criterion shown in FIG. 1 was applied for judgment.
The beard on the both sides of the mice used in Example 2 was collected and cultured by the method described in Development, 105, pp. 271-277, 1989. The beard from one side was used as a control, and that from the other side was treated with the aforementioned oligopeptide ssb7 (50 μg/ml). After cultivation for 5 days, Hacl-1 in the cultures was determined according to the method of Example 1.

[2] = tested on: Hacl-1 in the hair follicles; assay: Induction of Hacl-1 expression and anagen in hair follicles of mouse back skin after subcutaneous injection; assay type: in vivo; conditions: C57BL/6 mice in telogen, 0.8 mg/ml solution, 0.1 ml subcutaneously 5 times at intervals of 24 hours
Protocol: as §1
Promoting activity on hair growth of the aforementioned polypeptide H1 and oligopeptide ssb7 was evaluated. C57BL/6 mice are known to have sustained telogen for about 50 days from the 45-day after birth to around the 95-day, and the hair cycle of the animal is easily judged based on the skin color changes, i.e., from pink in telogen to gray or black in anagen. […] The polypeptide H1 solution (0.8 mg/ml) or the oligopeptide ssb7 solution (0.8 mg/ml) prepared above was subcutaneously injected 5 times in the amount of 0.1 ml at intervals of 24 hours, and Hacl-1 in the hair follicles was measured with time according to the method of Example 1.

Substance: ssb7: S-S bridged oligopeptide obtained by crosslinking pep7 (Ser-Ile-Glu-Gln-Ser-Cys-Asp-Gln-Asp-Glu) with BMH (SIEQSCDQDE; not fully specified; printed as Ser-Ile-Glu-Gln-Ser-Cys-Asp-Gln-Asp-Glu; also: two chains crosslinked through Cys6 by BMH (bismaleimidohexane))
- expression of Hacl-1 in cultured beard [1]: expression of Hacl-1 was observed
- induction of anagen of the hair follicles ([2]; 20-day, judged from Hacl-1 expression): induction of anagen
- Hacl-1 band in hair follicle samples (Western Blotting with antiserum against Hacl-1) ([2]; samples at 20-day): clear band of Hacl-1 was observed
